Results taken from article PMC6317416, “Thermophilic phosphoribosyltransferases Thermus thermophilus HB27 in nucleotide synthesis” (Beilstein Journal of Organic Chemistry, 2018).

System: T1, TthHPRT (hypoxanthine phosphoribosyltransferase Thermus thermophilus HB27)
T1 construct: gene hpt; C-terminal His-tag (pET-23a+), E. coli C3030
Experiment: HPLC product quantification, initial rate, nonlinear regression
Format: biochemical
Details: 5 mM MgCl2, 20 mM Tris-HCl pH 8.0, 70 °C
From the text: HPLC product quantification, initial rate, nonlinear regression on TthHPRT (hypoxanthine phosphoribosyltransferase Thermus thermophilus HB27)

Km (0.50 mM hypoxanthine) [µM]	SMILES	Km (1 mM PRPP) [µM]
220 ± 60	O=P(O)(O)OC[C@H]1O[C@H](OP(=O)(O)OP(=O)(O)O)[C@H](O)[C@@H]1O [PRPP]	–
–	Nc1nc2[nH]cnc2c(=O)[nH]1 [guanine]	28 ± 9
–	O=c1[nH]cnc2nc[nH]c12 [hypoxanthine]	13 ± 4
